For 28 compounds, T/C results are on record in PubChem BioAssay AID192 (DTP/NCI, 2004).

“And” between values parts separate entries of the source, which are not always exact repeats. Equal entries are not always repeated. Toxic doses and inconclusive results are not listed.

In the test the test system is BDF1 mice, B16 melanoma ip, median survival T/C. The experiment in a line: NCI In Vivo Anticancer Drug Screen. Data for tumor model B16 Melanoma (intraperitoneal) in B6D2F1 (BDF1) mice. The conditions noted are these: endpoint: median survival time, higher = longer survival. In short, it runs like this: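 Transplantable tumor model; survival or tumor size measured; reported as T/C, treated over vehicle control.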

[1] abbreviates: dose: 12.5 mg/kg/injection, schedule: Q01DX009 (ip), vehicle: Klucel (hydroxypropylcellulose) (HPC).
Where [2] appears, read: dose: 25.0 mg/kg/injection, schedule: Q01DX009 (ip), vehicle: Klucel (hydroxypropylcellulose) (HPC).
[3] abbreviates: dose: 12.5 mg/kg/injection, schedule: Q01DX009 (ip), vehicle: saline with Tween-80.
Setting [4] is: dose: 25.0 mg/kg/injection, schedule: Q01DX009 (ip), vehicle: saline with Tween-80.
[5] abbreviates: dose: 100.0 mg/kg/injection, schedule: Q01DX009 (ip), vehicle: saline.
[6] abbreviates: dose: 100.0 mg/kg/injection, schedule: Q04DX003 (ip), vehicle: saline.
Where [7] appears, read: dose: 200.0 mg/kg/injection, schedule: Q01DX009 (ip), vehicle: saline.
Setting [8] is: dose: 200.0 mg/kg/injection, schedule: Q04DX003 (ip), vehicle: saline.
The mark [9] stands for this setting: dose: 100.0 mg/kg/injection, schedule: Q04DX003 (ip), vehicle: Klucel (hydroxypropylcellulose) (HPC).
[10] abbreviates: dose: 200.0 mg/kg/injection, schedule: Q04DX003 (ip), vehicle: Klucel (hydroxypropylcellulose) (HPC).
Where [11] appears, read: dose: 6.25 mg/kg/injection, schedule: Q01DX009 (ip), vehicle: saline.
The mark [12] stands for this setting: dose: 50.0 mg/kg/injection, schedule: Q01DX009 (ip), vehicle: saline.
Where [13] appears, read: dose: 50.0 mg/kg/injection, schedule: Q01DX009 (ip), vehicle: Klucel (hydroxypropylcellulose) (HPC).
The mark [14] stands for this setting: dose: 100.0 mg/kg/injection, schedule: Q01DX009 (ip), vehicle: Klucel (hydroxypropylcellulose) (HPC).
[15] abbreviates: dose: 200.0 mg/kg/injection, schedule: Q01DX009 (ip), vehicle: Klucel (hydroxypropylcellulose) (HPC).
Setting [16] is: dose: 400.0 mg/kg/injection, schedule: Q01DX009 (ip), vehicle: Klucel (hydroxypropylcellulose) (HPC).
The mark [17] stands for this setting: dose: 25.0 mg/kg/injection, schedule: Q01DX009 (ip), vehicle: saline.

Turning to `CC(=O)OC12CC[N+]3(C)CCCCC3C1=Nc1ccccc12` (configuration not stated), the T/C is, setting by setting: under setting [1], 109 % of control; under setting [2], 104 % of control.

As to `C=CCNC(=S)Nc1cccc(Cl)c1C`, the T/C runs as follows: (dose: 12.5 mg/kg/injection, schedule: Q04DX003 (ip), vehicle: Klucel (hydroxypropylcellulose) (HPC)) 93 % of control; (dose: 25.0 mg/kg/injection, schedule: Q04DX003 (ip), vehicle: Klucel (hydroxypropylcellulose) (HPC)) 100 % of control; (dose: 50.0 mg/kg/injection, schedule: Q04DX003 (ip), vehicle: Klucel (hydroxypropylcellulose) (HPC)) 100 % of control.

As to `COc1cccc2c1C(=O)c1c(O)c3c(c(O)c1C2=O)C[C@@](O)(C(C)=O)C[C@@H]3OC1CC(N(Cc2ccccc2)Cc2ccccc2)C(O)C(C)O1` (some centres not stated), the T/C (dose: 12.5 mg/kg/injection, schedule: Q01DX001 (ip), vehicle: water) is 103 % of control; the T/C (dose: 25.0 mg/kg/injection, schedule: Q01DX001 (ip), vehicle: water) is 113 % of control; the T/C (dose: 100.0 mg/kg/injection, schedule: Q01DX001 (ip), vehicle: water) was 150 % of control.

Turning to `OC(COc1ccccc1)CN1CCCCC1` (configuration not stated), the T/C was 112 % of control (dose: 100.0 mg/kg/injection, schedule: Q01DX009 (ip), vehicle: saline with Tween-80); 102 % of control (dose: 200.0 mg/kg/injection, schedule: Q01DX009 (ip), vehicle: saline with Tween-80); 114 % of control (dose: 400.0 mg/kg/injection, schedule: Q01DX009 (ip), vehicle: saline with Tween-80).

Consider `COC(=O)c1ccc[n+](CCc2c[nH]c3ccccc23)c1`, for which the T/C was 108 % of control under setting [3]; 99 % of control under setting [4]; 97 % of control (dose: 50.0 mg/kg/injection, schedule: Q01DX009 (ip), vehicle: saline with Tween-80).

With `Cc1nccc(=O)[nH]1`, the T/C under setting [5] was 90 % of control, the T/C under setting [6] was 117 % of control, the T/C under setting [7] is 107 % of control and the T/C under setting [8] was 100 % of control.

`[Cl][Pt+2][Cl].[NH-]c1ccc(C(=O)c2ccccc2)cc1[NH-]`: the T/C (dose: 20.0 mg/kg/injection, schedule: Q01DX009 (ip), vehicle: saline with Tween-80) was 108 % of control; the T/C (dose: 40.0 mg/kg/injection, schedule: Q01DX009 (ip), vehicle: saline with Tween-80) was 113 % of control; the T/C (dose: 80.0 mg/kg/injection, schedule: Q01DX009 (ip), vehicle: saline with Tween-80) is 118 % of control; the T/C (dose: 160.0 mg/kg/injection, schedule: Q01DX009 (ip), vehicle: saline with Tween-80) is 114 % of control; the T/C (dose: 320.0 mg/kg/injection, schedule: Q01DX009 (ip), vehicle: saline with Tween-80) was 113 % of control.

Take `O=S(=O)(/N=C1C=C/C(=N/S(=O)(=O)c2ccccc2)C2C3C=CC(C3)C/12)c1ccccc1` (configuration not stated): the T/C is 92 % of control under setting [9] and 86 % of control under setting [10].

Take `CCOC(=O)C(N)C[S][Sn]([CH3])([CH3])[Cl]` (configuration not stated): the T/C is 105 % of control (dose: 6.25 mg/kg/injection, schedule: Q01DX009 (ip), vehicle: saline with Tween-80); 88 % of control under setting [3]; 100 % of control under setting [4].

On to `O=C1Nc2ccc(Cl)cc2C(c2ccccc2)=NC1O` (configuration not stated), for which the T/C runs as follows: under setting [11], 116 % of control; under setting [12], 95 % of control; under setting [5], 95 % of control; under setting [7], 89 % of control; (dose: 400.0 mg/kg/injection, schedule: Q01DX009 (ip), vehicle: saline) 89 % of control.

As for `NNC(=O)Cc1nc2ccccc2[nH]c1=O`, the T/C by setting is: under setting [13], 96 % of control; under setting [14], 96 % of control; under setting [15], 90 % of control.

With `CC1(S)CCC2CC1C2(C)C` (configuration not stated), the T/C is 94 % of control under setting [1], 94 % of control under setting [2] and 89 % of control under setting [13].

As for `CC12C=CC3(CCC4C(C)(C)C(O)C(=O)CC4(C)C3CC1=O)C2` (configuration not stated), the T/C runs as follows: under setting [14], 97 % of control; under setting [15], 89 % of control; under setting [16], 94 % of control.

As to `NC(CSCCc1ccccn1)C(=O)O` (configuration not stated), the T/C under setting [17] was 100 % of control; the T/C under setting [12] was 100 % of control; the T/C under setting [5] is 110 % of control; the T/C under setting [6] is 104 % of control; the T/C under setting [8] was 104 % of control; the T/C (dose: 400.0 mg/kg/injection, schedule: Q04DX003 (ip), vehicle: saline) is 104 % of control.

Turning to `CCCCCCCCCCCCCC[N+](C)(C)CCCCCCCCCCCCCC`, the T/C (dose: 6.0 mg/kg/injection, schedule: Q01DX009 (ip), vehicle: saline) was 88 % of control.

Consider `O=C(O)c1cc(-c2ccc(Cl)cc2)nc2c(Cl)cccc12`, for which the T/C under setting [14] is 100 % of control.

With `O=C(O)C(CSC(c1ccccc1)c1ccccc1)NC(=O)C(c1ccccc1)c1ccccc1` (configuration not stated), the T/C is, setting by setting: under setting [9], 102 % of control; under setting [10], 105 % of control; (dose: 400.0 mg/kg/injection, schedule: Q04DX003 (ip), vehicle: Klucel (hydroxypropylcellulose) (HPC)) 92 % of control.

Take `C(=Nc1ccc2c(c1)Cc1ccccc1-2)c1ccnc2ccccc12`: the T/C was 103 % of control under setting [14], 100 % of control under setting [15] and 93 % of control under setting [16].

Turning to `O=C(Nc1nccs1)Nc1ccccc1C(F)(F)F`, the T/C is, setting by setting: under setting [2], 103 % of control; under setting [13], 99 % of control; under setting [14], 97 % of control; under setting [15], 103 % of control; under setting [16], 99 % of control.

For the compound `CC1(C)COCN1COCCOCN1COCC1(C)C`, the T/C runs as follows: under setting [11], 102 % of control; (dose: 12.5 mg/kg/injection, schedule: Q01DX009 (ip), vehicle: saline) 103 % of control; under setting [17], 113 % of control; under setting [12], 118 % of control; under setting [5], 120 % of control.

Consider `O=C(Cn1cc(F)c(=O)[nH]c1=O)c1ccco1`, for which the T/C is 94 % of control under setting [13], 100 % of control under setting [14] and 94 % of control under setting [15].

Regarding `COC(=O)c1cc(C)c(Br)c(N)c1`, the T/C runs as follows: (dose: 37.5 mg/kg/injection, schedule: Q04DX003 (ip), vehicle: Klucel (hydroxypropylcellulose) (HPC)) 97 % of control; (dose: 75.0 mg/kg/injection, schedule: Q04DX003 (ip), vehicle: Klucel (hydroxypropylcellulose) (HPC)) 92 % of control; (dose: 150.0 mg/kg/injection, schedule: Q04DX003 (ip), vehicle: Klucel (hydroxypropylcellulose) (HPC)) 94 % of control.

In the case of `COC(=O)c1[nH]cnc1/N=N/N(C)C`, the T/C (dose: 3.75 mg/kg/injection, schedule: Q01DX009 (ip), vehicle: saline) is 121 % of control and the T/C (dose: 15.0 mg/kg/injection, schedule: Q01DX009 (ip), vehicle: saline) was 121 % of control.

Take `O=C(Nc1ccc(N=C=S)cc1Cl)c1cc(Cl)cc(Cl)c1O`: the T/C is, setting by setting: (dose: 6.25 mg/kg/injection, schedule: Q01DX009 (ip), vehicle: Klucel (hydroxypropylcellulose) (HPC)) 104 % of control; under setting [1], 102 % of control and 111 % of control; under setting [2], 110 % of control and 111 % of control; under setting [13], 108 % of control and 118 % of control.

For `CCC[CH2][Sn]([CH2]CCC)([CH2]CCC)[O]C(=O)CC[S][Sn]([CH2]CCC)([CH2]CCC)[CH2]CCC`, the T/C by setting is: (dose: 1.0 mg/kg/injection, schedule: Q01DX009 (ip), vehicle: saline with Tween-80) 92 % of control; (dose: 2.0 mg/kg/injection, schedule: Q01DX009 (ip), vehicle: saline with Tween-80) 95 % of control.

As for `C=CCc1cc2c(C)cc(=O)oc2c(C)c1OC(C)=O`, the T/C reads like this: (dose: 100.0 mg/kg/injection, schedule: Q04DX003 (ip), vehicle: gum acacia) 95 % of control; (dose: 200.0 mg/kg/injection, schedule: Q04DX003 (ip), vehicle: gum acacia) 86 % of control; (dose: 400.0 mg/kg/injection, schedule: Q04DX003 (ip), vehicle: gum acacia) 86 % of control.

Regarding `N#CCCC1C2CCC(C2)C1C#N` (configuration not stated), the T/C is 112 % of control (dose: 5.0 mg/kg/injection, schedule: Q01DX009 (ip), vehicle: Klucel (hydroxypropylcellulose) (HPC)) and 95 % of control (dose: 10.0 mg/kg/injection, schedule: Q01DX009 (ip), vehicle: Klucel (hydroxypropylcellulose) (HPC)).

As to `CCc1cnccc1C`, the T/C under setting [2] is 100 % of control and the T/C under setting [13] is 112 % of control.
